The values below are quoted from earlier work in patent publication US12151031B2, “Topical copper tripeptide composition” (YUVAN RESEARCH, INC., priority 2018, dated 2024).

The conditions of the data set: in vivo.

Take “glycyl-histidyl-lysin tripeptide in the form of its Cu Complex [GHK-Cu]”: the Elimination half-life was 1.5 to 2 h.
